According to patent US20100016232A1, “Treatment Of Inflammatory Diseases With Mammal Beta Defensins” (Novozymes A/S, priority 2008, published 2010):
Marks after values point to notes of the source that are not given here.

What was measured:
IL-23, human PBMC = experiment: IL-23 in supernatants of human PBMC, ELISA; assay type: cell-based; settings: treatment 3.5 ng/ml
Protocol: Peripheral blood was drawn from healthy volunteers (with approval from the relevant ethical committee in Denmark). Heparinized blood was diluted 1/1 v/v with RPMI and were subjected to Ficoll density centrifugation within 2 h of drawing. Plasma was collected from the top from individual donors and was kept on ice until it was used at 2% in the culture medium (autologous culture medium). Isolated PBMC were resuspended in autologous culture medium and seeded in 96-well culture plates with 255.000 cells per well in a total of 200 μl. […] The concentrations used for stimulation were optimized on 3 different donors in initial experiments, for LPS two different concentrations were used to be sure to be on a cytokine level that is possible to modulate. In some experiments PBMC were treated with Dexamethason and Indomethacin alone and together with LPS or LTA as a control on downregulation of inflammatory cytokines. The supernatants were collected after incubation at 37° C. for 24 hours, and stored at −80° C. until cytokine measurement. Viability was measured by Alamar Blue (Biosource, DALL 1100) in all experiments and in some cases also by MTS (Promega) according to manufacturer's instruction and was in some experiments also judged by counting of the cells by a Nucleocounter. […]
(§1) Cell culture supernatants were collected and stored at −80° C. Amounts of IL-23 was measured by standard sandwich ELISA using commercially available antibodies and standards according to the manufacturer's protocols (eBioscience).

[1] = system: collagen-induced arthritis (CIA) in the mouse; experiment: Collagen-induced rheumatoid arthritis model, clinical arthritis score; assay type: in vivo; set-up: key: each paw scored 0-4 by ascending severity; total summed over paws; settings: Group B, 1 mg/kg IP once daily
Protocol: All animals were subjected on Day 0 of the study (study commencement) to an intradermal injection into the tail of 0.1 ml Type II Collagen/CFA emulsion (200 μg collagen per mouse) under light Isoflurane anesthesia, using a plastic syringe. The location of injection was at an approximate caudal distance of about 1 cm from the base of the tail. A collagen challenge (200 μg/mouse) was presented to the animals by IP injection of collagen and PBS on Day 21.
Treatments were commenced on day 14 of the study and continued once daily throughout. All surviving mice were terminated on study day 42.
Mice were examined for signs of arthritogenic responses in peripheral joints on study day 0, 14, 21 and thereafter five times weekly until termination of the study. Arthritis reactions were reported for each paw according to a 0-4 scale in ascending order of severity as shown below:
In accordance with Home Office regulations mice with a total clinical score of equal to or greater than 12 were culled due to arthritis severity. The clinical score of these mice at termination was carried forward in the analysis for the remainder of the study in order that the data was not artificially skewed by the removal of high scoring mice.

[2] = system: TNF production from mouse peripheral blood mononuclear cells (PBMC); experiment: TNF production from mouse PBMC, Cytometric Bead Array; assay type: cell-based; settings: LPS 20 ng/ml, treatment 3.5 ng/ml
Protocol: Mouse peripheral blood mononuclear cells were isolated from blood of ten NMRI mice. In short, heparinized blood was diluted 1/1 v/v with RPMI and subjected to Ficoll density centrifugation within 2 h of drawing. Plasma was collected from the top and discarded. Isolated PBMC were resuspended in culture medium (RPMI 1640 (Gibco, 42401) w/1% penicillin and streptomycin and 1% L-Glutamine) and seeded in 96-well culture plates with 115.500 cells per well in a total of 200 μl. […] The supernatants were collected after incubation at 37° C. for 24 hours, and stored at −80° C. until cytokine measurement.
Cytokine production in supernatants was measured by flow cytometry with a mouse inflammation cytometric bead array (CBA) according to manufacturer's instructions (BD) on a FACSarray flow cytometer.

[3] = system: IL-23, human CD14+ monocyte-derived dendritic cells; experiment: IL-23 in supernatants of human CD14+ monocyte-derived dendritic cells, ELISA; assay type: cell-based; settings: Dexamethasone 1 μM
Protocol: The DCs were prepared according to a modified protocol originally described by Romani et al. Briefly, peripheral blood mononuclear cells (PBMCs) were purified from buffy coats of healthy donors by centrifugation over a Ficoll-pague (GE-healthcare) gradient. Monocytes were isolated from PBMC by positive selection of CD14+ cells by magnetic beads (Dynal, Invitrogen) according to the manufacturer's instructions. The CD14+ monocytes were cultured in 6-well plates in RPMI/2% Human AB Serum recombinant human recombinant granulocyte-macrophage colony-stimulating factor (GM-CSF, 20 ng/ml) and IL-4 (20 ng/ml) (PeproTech) for 6 days, replenishing the medium/cytokines after 2 and 5 days.
as §1

[4] = system: IL-10 production from human peripheral blood mononuclear cells (PBMC); experiment: IL-10 production from human PBMC, Cytometric Bead Array; assay type: cell-based; settings: concentration of control compound not given, Table 17
Protocol: (§2) Peripheral blood was drawn from healthy volunteers (with approval from the relevant ethical committee in Denmark). Heparinized blood was diluted 1/1 v/v with RPMI and were subjected to Ficoll density centrifugation within 2 h of drawing. Plasma was collected from the top from individual donors and was kept on ice until it was used at 2% in the culture medium (autologous culture medium). Isolated PBMC were resuspended in autologous culture medium and seeded in 96-well culture plates with 255.000 cells per well in a total of 200 μl. […] The concentrations used for stimulation were optimized on 3 different donors in initial experiments, for LPS two different concentrations were used to be sure to be on a cytokine level that is possible to modulate. In some experiments PBMC were treated with Dexamethason and Indomethacin alone and together with LPS or LTA as a control on downregulation of inflammatory cytokines. The supernatants were collected after incubation at 37° C. for 24 hours, and stored at −80° C. until cytokine measurement. Viability was measured by Alamar Blue (Biosource, DALL 1100) in all experiments and in some cases also by MTS (Promega) according to manufacturer's instruction and was in some experiments also judged by counting of the cells by a Nucleocounter.
(§3) Cytokine production in supernatants was measured by flow cytometry with a human inflammation cytometric bead array (CBA) according to manufacturer's instructions (BD) on a FACSarray flow cytometer. The following cytokines were measured: IL-8, IL-1β, IL-10, TNF, IL-12 p70, IL-6. In some experiments, cytokines were measured by ELISA kits from R&D systems (IL-10, TNF-α, IL-1β) according to the manufacturer' instruction.

[5] = system: IL-1β production from human peripheral blood mononuclear cells (PBMC); experiment: IL-1β production from human PBMC, Cytometric Bead Array; assay type: cell-based; settings: concentration of control compound not given, Table 18
Protocol: as §2, §3

With `C[C@@H]1C[C@H]2[C@@H]3CCC4=CC(=O)C=C[C@]4(C)[C@@]3(F)[C@@H](O)C[C@]2(C)[C@@]1(O)C(=O)CO` [Dexamethasone, reference compound] the IL-23 (IL-23, human PBMC; Control (medium)) was 222 pg/mL, the IL-23 (IL-23, human PBMC; LTA 5 μg/ml) was 223 pg/mL and the “Mean Arthritic Score” value ([1]; Study Day 0) was 0.0. For the same molecule, the “Mean Arthritic Score” value ([1]; Study Day 14) was 0.4, the “Mean Arthritic Score” value ([1]; Study Day 21) was 0.0 and the “Mean Arthritic Score” value ([1]; Study Day 22) was 0.0. The “Mean Arthritic Score” value ([1]; Study Day 23) was 0.0, the “Mean Arthritic Score” value ([1]; Study Day 26) was 0.0* and the “Mean Arthritic Score” value ([1]; Study Day 27) was 0.0*. For the same molecule, the “Mean Arthritic Score” value ([1]; Study Day 28) was 0.0*, the “Mean Arthritic Score” value ([1]; Study Day 29) was 0.0* and the “Mean Arthritic Score” value ([1]; Study Day 30) was 0.0*. For the same molecule, the “Mean Arthritic Score” value ([1]; Study Day 33) was 0.0*, the “Mean Arthritic Score” value ([1]; Study Day 34) was 0.0* and the “Mean Arthritic Score” value ([1]; Study Day 35) was 0.0*. For the same molecule, the “Mean Arthritic Score” value ([1]; Study Day 36) was 0.0*, the “Mean Arthritic Score” value ([1]; Study Day 37) was 0.0* and the “Mean Arthritic Score” value ([1]; Study Day 40) was 0.0*. For the same molecule, the “Mean Arthritic Score” value ([1]; Study Day 41) was 0.0*, the TNF [2] was 328 pg/mL and the IL-23 ([3]; LPS (100 ng/ml) and IFN-γ (20 ng/ml)) was 1147 pg/mL. The IL-23 ([3]; Unstimulated) was 424 pg/mL, the “IL-10 % of control” value ([4]; LPS 0.6 ng/ml) was 70% and the “IL-10 % of control” value ([4]; LPS 20 ng/ml) was 67%. For the same molecule, the “IL-1β % of control” value ([5]; LPS 0.6 ng/ml) was 14% and the “IL-1β % of control” value ([5]; LPS 20 ng/ml) was 44%.
